Key:
Bcl-2 WT = Bcl-2 WT (Homo sapiens, UniProt P10415); assay: Bcl-2 WT inhibition, fluorescence polarization (Flu-BIM tracer) binding assay; conditions: FP; 20 nM Bcl2, 5 nM Flu-BIM, 1 h incubation; read-out: Bcl-2 w.t. (FP)
MV-4-11 cells = assay: CCK-8 cell viability assay in MV-4-11 cells; type: cell-based; conditions: Homo sapiens, MV4-11, 72 h, 10% FBS, 3 days
How it was run: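 MV-4-11 cells (20000/well) were exposed to serially diluted compound for 3 days at 37 °C. Viability was then measured with CCK-8 (1–4 h, absorbance 450 nm). IC50 was derived from readings normalized to vehicle.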

RS4; 11Bcl-2-G101V cells = assay: CellTiter-Glo (CTG) cell viability assay in RS4;11-Bcl-2-G101V cells; type: cell-based; conditions: 72 h, 10% FBS, 3 days
How it was run: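 Engineered RS4;11 lines carrying Bcl-2 mutants, 10000 cells/well in RPMI-1640 with 10% FBS, exposed to serially diluted compound for 3 days at 37 °C, 5% CO2. Viability read by CellTiter-Glo luminescence, normalized to vehicle; IC50 calculated.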

Chain of Bcl-2 WT (P10415 whole entry): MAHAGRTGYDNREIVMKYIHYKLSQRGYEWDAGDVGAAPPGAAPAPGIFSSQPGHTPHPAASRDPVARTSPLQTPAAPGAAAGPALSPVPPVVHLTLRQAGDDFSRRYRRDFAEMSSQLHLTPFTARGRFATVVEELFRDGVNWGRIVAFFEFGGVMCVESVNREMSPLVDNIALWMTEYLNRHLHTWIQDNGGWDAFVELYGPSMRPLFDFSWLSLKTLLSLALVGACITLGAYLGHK

Compound	IC50 (Bcl-2 WT)	IC50 (MV-4-11 cells)	IC50 (RS4; 11Bcl-2-G101V cells)
CC1(C)CCC(CN2CCN(c3ccc(C(=O)NS(=O)(=O)c4ccc(NC[C@H]5CC[C@](C)(O)CC5)c([N+](=O)[O-])c4)c(Oc4cnc5[nH]ccc5c4)c3)CC2)=C(c2cc(-c3ccc(C(F)F)cc3)cs2)C1 [Example 49, 2-((1H-pyrrolo[2,3-b]pyridin-5-yl)oxy)-4-(4-((2-(4-(4-(difluoromethyl)phenyl)thiophen-2-yl)-4,4-dimethylcyclohex-1-en-1-yl)methyl)piperazin-1-yl)-N-((4-((((1r,4r)-4-hydroxy-4-methylcyclohexyl)methyl)amino)-3-nitrophenyl)sulfonyl)benzamide]	0.0384 µM	0.009 µM	0.42 µM
CC1(C)CCC(CN2CCN(c3ccc(C(=O)NS(=O)(=O)c4ccc(NC[C@H]5COCCO5)c([N+](=O)[O-])c4)c(Oc4cnc5[nH]ccc5c4)c3)CC2)=C(c2cc(-c3ccc(F)c(F)c3)cs2)C1 [Example 50, (S)—N-((4-(((1,4-dioxan-2-yl)methyl)amino)-3-nitrophenyl)sulfonyl)-2-((1H-pyrrolo[2,3-b]pyridin-5-yl)oxy)-4-(4-((2-(4-(3,4-difluorophenyl)thiophen-2-yl)-4,4-dimethylcyclohex-1-en-1-yl)methyl)piperazin-1-yl)benzamide]	0.0304 µM	0.065 µM	1.95 µM
CC1(C)CCC(CN2CCN(c3ccc(C(=O)NS(=O)(=O)c4ccc(NC[C@H]5CC[C@](C)(O)CC5)c([N+](=O)[O-])c4)c(Oc4cnc5[nH]ccc5c4)c3)CC2)=C(c2cc(-c3ccc(F)c(F)c3)cs2)C1 [Example 51, 2-((1H-pyrrolo[2,3-b]pyridin-5-yl)oxy)-4-(4-((2-(4-(3,4-difluorophenyl)thiophen-2-yl)-4,4-dimethylcyclohex-1-en-1-yl)methyl)piperazin-1-yl)-N-((4-((((1r,4r)-4-hydroxy-4-methylcyclohexyl)methyl)amino)-3-nitrophenyl)sulfonyl)benzamide]	0.0355 µM	0.052 µM	1.14 µM
CC1(C)CCC(CN2CCN(c3ccc(C(=O)NS(=O)(=O)c4ccc(NC[C@H]5CC[C@](C)(O)CC5)c([N+](=O)[O-])c4)c(Oc4cnc5[nH]ccc5c4)c3)CC2)=C(c2cc(-c3cc(F)c(F)cc3F)cs2)C1 [Example 53, 2-((1H-pyrrolo[2,3-b]pyridin-5-yl)oxy)-4-(4-((4,4-dimethyl-2-(4-(2,4,5-trifluorophenyl)thiophen-2-yl)cyclohex-1-en-1-yl)methyl)piperazin-1-yl)-N-((4-((((1r,4r)-4-hydroxy-4-methylcyclohexyl)methyl)amino)-3-nitrophenyl)sulfonyl)benzamide]	0.0278 µM	0.009 µM	0.43 µM
CC1(C)CCC(CN2CCN(c3ccc(C(=O)NS(=O)(=O)c4ccc(NC[C@H]5CC[C@](C)(O)CC5)c([N+](=O)[O-])c4)c(Oc4cnc5[nH]ccc5c4)c3)CC2)=C(c2cc(-c3c(F)ccc(F)c3F)cs2)C1 [Example 54, 2-((1H-pyrrolo[2,3-b]pyridin-5-yl)oxy)-4-(4-((4,4-dimethyl-2-(4-(2,3,6-trifluorophenyl)thiophen-2-yl)cyclohex-1-en-1-yl)methyl)piperazin-1-yl)-N-((4-((((1r,4r)-4-hydroxy-4-methylcyclohexyl)methyl)amino)-3-nitrophenyl)sulfonyl)benzamide]	0.0228 µM	0.007 µM	0.27 µM
CC1(C)CCC(CN2CCN(c3ccc(C(=O)NS(=O)(=O)c4ccc(NC[C@H]5CC[C@](C)(O)CC5)c([N+](=O)[O-])c4)c(Oc4cnc5[nH]ccc5c4)c3)CC2)=C(c2cc(-c3cc(F)cc(C#N)c3)cs2)C1 [Example 55, 2-((1H-pyrrolo[2,3-b]pyridin-5-yl)oxy)-4-(4-((2-(4-(3-cyano-5-fluorophenyl)thiophen-2-yl)-4,4-dimethylcyclohex-1-en-1-yl)methyl)piperazin-1-yl)-N-((4-((((1r,4r)-4-hydroxy-4-methylcyclohexyl)methyl)amino)-3-nitrophenyl)sulfonyl)benzamide]	0.0312 µM	0.072 µM	1.14 µM
CC1(C)CCC(CN2CCN(c3ccc(C(=O)NS(=O)(=O)c4ccc(NC[C@H]5CC[C@](C)(O)CC5)c([N+](=O)[O-])c4)c(Oc4cnc5[nH]ccc5c4)c3)CC2)=C(c2cc(-c3ccc(C(C)(C)C#N)cc3)cs2)C1 [Example 56, 2-((1H-pyrrolo[2,3-b]pyridin-5-yl)oxy)-4-(4-((2-(4-(4-(2-cyanopropan-2-yl)phenyl)thiophen-2-yl)-4,4-dimethylcyclohex-1-en-1-yl)methyl)piperazin-1-yl)-N-((4-((((1r,4r)-4-hydroxy-4-methylcyclohexyl)methyl)amino)-3-nitrophenyl)sulfonyl)benzamide]	0.0161 µM	0.068 µM	1.91 µM
CN(C)c1ccccc1-c1csc(C2=C(CN3CCN(c4ccc(C(=O)NS(=O)(=O)c5ccc(NC[C@H]6COCCO6)c([N+](=O)[O-])c5)c(Oc5cnc6[nH]ccc6c5)c4)CC3)CCC(C)(C)C2)c1 [Example 58, (S)—N-((4-(((1,4-dioxan-2-yl)methyl)amino)-3-nitrophenyl)sulfonyl)-2-((1H-pyrrolo[2,3-b]pyridin-5-yl)oxy)-4-(4-((2-(4-(2-(dimethylamino)phenyl)thiophen-2-yl)-4,4-dimethylcyclohex-1-en-1-yl)methyl)piperazin-1-yl)benzamide]	0.0201 µM	0.178 µM	3.05 µM
CC1(C)CCC(CN2CCN(c3ccc(C(=O)NS(=O)(=O)c4ccc(NC[C@H]5CC[C@](C)(O)CC5)c([N+](=O)[O-])c4)c(Oc4cnc5[nH]ccc5c4)c3)CC2)=C(c2cc(-c3ccc(C(C)(C)O)cc3)cs2)C1 [Example 59, 2-((1H-pyrrolo[2,3-b]pyridin-5-yl)oxy)-N-((4-((((1r,4r)-4-hydroxy-4-methylcyclohexyl)methyl)amino)-3-nitrophenyl)sulfonyl)-4-(4-((2-(4-(4-(2-hydroxypropan-2-yl)phenyl)thiophen-2-yl)-4,4-dimethylcyclohex-1-en-1-yl)methyl)piperazin-1-yl)benzamide]	0.0293 µM	0.002 µM	0.29 µM
CC1(C)CCC(CN2CCN(c3ccc(C(=O)NS(=O)(=O)c4ccc(NC[C@H]5CC[C@](C)(O)CC5)c([N+](=O)[O-])c4)c(Oc4cnc5[nH]ccc5c4)c3)CC2)=C(c2cc(-c3ccc(C(O)(C(F)(F)F)C(F)(F)F)cc3)cs2)C1 [Example 60, 2-((1H-pyrrolo[2,3-b]pyridin-5-yl)oxy)-4-(4-((2-(4-(4-(1,1,1,3,3,3-hexafluoro-2-hydroxypropan-2-yl)phenyl)thiophen-2-yl)-4,4-dimethylcyclohex-1-en-1-yl)methyl)piperazin-1-yl)-N-((4-((((1r,4r)-4-hydroxy-4-methylcyclohexyl)methyl)amino)-3-nitrophenyl)sulfonyl)benzamide]	0.0204 µM	0.303 µM	3.41 µM
CC1(C)CCC(CN2CCN(c3ccc(C(=O)NS(=O)(=O)c4ccc(NC[C@H]5CC[C@](C)(O)CC5)c([N+](=O)[O-])c4)c(Oc4cnc5[nH]ccc5c4)c3)CC2)=C(c2cc(-c3ccc(C(C)(C)O)cc3F)cs2)C1 [Example 62, 2-((1H-pyrrolo[2,3-b]pyridin-5-yl)oxy)-4-(4-((2-(4-(2-fluoro-4-(2-hydroxypropan-2-yl)phenyl)thiophen-2-yl)-4,4-dimethylcyclohex-1-en-1-yl)methyl)piperazin-1-yl)-N-((4-((((1r,4r)-4-hydroxy-4-methylcyclohexyl)methyl)amino)-3-nitrophenyl)sulfonyl)benzamide]	0.0157 µM	0.004 µM	0.14 µM
CC1(C)CCC(CN2CCN(c3ccc(C(=O)NS(=O)(=O)c4ccc(NC[C@H]5COCCO5)c([N+](=O)[O-])c4)c(Oc4cnc5[nH]ccc5c4)c3)CC2)=C(c2cc(-c3c(F)cc(C(C)(C)O)cc3F)cs2)C1 [Example 64, (S)—N-((4-(((1,4-dioxan-2-yl)methyl)amino)-3-nitrophenyl)sulfonyl)-2-((1H-pyrrolo[2,3-b]pyridin-5-yl)oxy)-4-(4-((2-(4-(2,6-difluoro-4-(2-hydroxypropan-2-yl)phenyl)thiophen-2-yl)-4,4-dimethylcyclohex-1-en-1-yl)methyl)piperazin-1-yl)benzamide]	0.0164 µM	0.007 µM	0.03 µM
CCC(O)(CC)c1cc(F)c(-c2csc(C3=C(CN4CCN(c5ccc(C(=O)NS(=O)(=O)c6ccc(NC[C@H]7CC[C@](C)(O)CC7)c([N+](=O)[O-])c6)c(Oc6cnc7[nH]ccc7c6)c5)CC4)CCC(C)(C)C3)c2)c(F)c1 [Example 67, 2-((1H-pyrrolo[2,3-b]pyridin-5-yl)oxy)-4-(4-((2-(4-(2,6-difluoro-4-(3-hydroxypentan-3-yl)phenyl)thiophen-2-yl)-4,4-dimethylcyclohex-1-en-1-yl)methyl)piperazin-1-yl)-N-((4-((((1r,4r)-4-hydroxy-4-methylcyclohexyl)methyl)amino)-3-nitrophenyl)sulfonyl)benzamide]	0.0272 µM	0.251 µM	0.84 µM
[2H]C([2H])([2H])C(O)(c1cc(F)c(-c2csc(C3=C(CN4CCN(c5ccc(C(=O)NS(=O)(=O)c6ccc(NC[C@H]7CC[C@](C)(O)CC7)c([N+](=O)[O-])c6)c(Oc6cnc7[nH]ccc7c6)c5)CC4)CCC(C)(C)C3)c2)c(F)c1)C([2H])([2H])[2H] [Example 68, 2-((1H-pyrrolo[2,3-b]pyridin-5-yl)oxy)-4-(4-((2-(4-(2,6-difluoro-4-(2-hydroxypropan-2-yl-1,1,1,3,3,3-d6)phenyl)thiophen-2-yl)-4,4-dimethylcyclohex-1-en-1-yl)methyl)piperazin-1-yl)-N-((4-((((1r,4r)-4-hydroxy-4-methylcyclohexyl)methyl)amino)-3-nitrophenyl)sulfonyl)benzamide]	0.0232 µM	0.009 µM	0.021 µM

From US12577245B2, “Sulfonyl benzamide derivatives as Bcl-2 inhibitors” (ASCENTAGE PHARMA (SUZHOU) CO., LTD., priority 2021, dated 2026)
